Experimental data taken from paper PMC10567728, “Targeted imaging of uPAR expression in vivo with cyclic AE105 variants” (Scientific Reports, 2023).
Several values for one entry are separate records, joined by “and”; a condition that tells them apart may be missing. Identical values can stand only once. Like-named read-outs stand apart in the source and are kept apart here. Positions of bridges follow the written chain, without caps; N, C: chain ends. Non-standard residues stand in square brackets, D forms with d. Residues, ends and D or L forms follow the SMILES beside them. *: point of attachment. DOTA = O=C(O)CN1CCN(CC(=O)O)CCN(CC(=O)*)CCN(CC(=O)O)CC1; Cha = N[C@@H](CC1CCCCC1)C(=O)O

Columns and labels:
uPAR•uPA interaction = biological target: T1, uPAR•uPA interaction (Homo sapiens, UniProt Q03405); experiment: SPR competition assay of the uPAR•uPA interaction; format: binding; conditions: for IC50: competition of uPAR•uPA interaction, 2 nM uPAR, 20 °C, n = 3
T1 construct: Recombinant human uPAR^1–283 was expressed; made in house; host or cells: Drosophila melanogaster S2 cells
T1 sequence (Q03405 23-305): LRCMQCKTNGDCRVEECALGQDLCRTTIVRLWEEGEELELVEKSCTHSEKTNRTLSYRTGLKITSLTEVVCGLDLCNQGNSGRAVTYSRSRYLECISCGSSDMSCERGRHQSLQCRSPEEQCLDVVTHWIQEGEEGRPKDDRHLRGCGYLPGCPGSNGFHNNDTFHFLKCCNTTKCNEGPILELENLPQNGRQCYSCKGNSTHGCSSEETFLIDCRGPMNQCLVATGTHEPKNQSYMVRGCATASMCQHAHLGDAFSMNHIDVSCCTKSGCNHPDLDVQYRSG
Experimental: The IC50-values of antagonistic peptides on the uPAR•uPA interaction were determined with SPR using a Biacore T200™ or Biacore 3000™ instruments (Cytiva) essentially as described[4],[56],[77]. In brief, we immobilized high levels of pro-uPA^S356A (0.1 pmol pro-uPA/mm^2) on a CM5 sensor chip via amine coupling. The experiments were conducted by injecting 2 nM uPAR in presence of a threefold dilution series of a given antagonistic peptide for 300 s with a flow rate of 50 µL/min at 20 °C. The high immobilization levels result in binding conditions that are entirely controlled by mass transport limitations (MTL). Accordingly, the observed association rates (vobs) are directly proportional to the concentrations of binding-active uPAR in solution. To determine the IC50, we also measured a standard curve of uPAR binding (a twofold dilution series of 0.06 to 2 nM uPAR, linear due to MTL). The running buffer was 10 mM HEPES, 150 mM NaCl, 3 mM EDTA, and 0.05% (v/v) surfactant P-20 at pH 7.4, and the regeneration buffer was 0.1 M acetic acid in 0.5 M NaCl.

uPAR [1] = biological target: T2, uPAR (Homo sapiens, UniProt Q03405); experiment: SPR real-time binding kinetics, peptides in solution and immobilised uPAR
T2 construct: Recombinant human uPAR^1–283 was expressed; made in house; host or cells: Drosophila melanogaster S2 cells
T2 sequence (Q03405 23-305): as above
Experimental: The real-time binding kinetics of uPAR•peptide interactions were measured with SPR using a Biacore T200™(Cytiva); essentially as described in[56],[77]. In brief, uPAR was covalently immobilised on a CM5 sensor chip via amine coupling resulting in a surface density of 1157–1581 RU (~ 33–44 fmol/mm^2). The binding kinetics for the peptides to immobilised uPAR were measured using a single cycle protocol. In this setup, peptides were injected as five serial two-fold dilutions with a contact time of 200 s. After the last analyte injection, the dissociation time was set to 1000 s. The sensor chip was regenerated with two consecutive injections of 0.1 M acetic acid in 0.5 M NaCl. All experiments were conducted at 20 °C with a flow rate of 50 µL/min in 10 mM HEPES, 150 mM NaCl, 3 mM EDTA, and 0.05% (v/v) surfactant P-20 at pH 7.4. The kinetic rate constants (kon and koff) were determined by non-linear regression fitting of the curves to the simple bimolecular interaction model (BiacoreT200 Evaluation™ 3.0 software).

uPAR [2] = biological target: T2, uPAR; experiment: Nano-DSF thermal stability of uPAR•peptide complexes; conditions: for Tm (apparent melting temperature of uPAR•peptide complex): 15 µM uPAR, 30 µM peptide, PBS pH 7.4, n = 3; for decrease in apparent Tm on introduction of spacer: (4) vs (1), (6) vs (3)
Experimental: The thermal stability of the uPAR•peptide complexes was analyzed with Nano-DSF using a Prometheus NT.48™ (Nanotemper). uPAR (15 µM) was mixed with twofold excess of peptide (30 µM) in PBS pH 7.4 and incubated for 15 min at RT to ensure complex formation. Samples containing either 15 µM uPAR or 30 µM of each peptide were included as controls. The samples were loaded into standard capillaries and in triplicates. To unfold the proteins, the samples were exposed to an increasing temperature gradient from 20 to 95 °C with a ramping rate of 1 °C/min. The excitation power was set to 50% (Ex.280 nm) and the fluorescence emission collected at 330 nm and 350 nm. The melting temperatures of the complexes were determined in the PR.ThermControl software (Nanotemper) from the first derivative of the fluorescence ratio (350 nm/330 nm).

[3] = single cycle SPR, immobilised uPAR, 20 °C
[4] = single cycle SPR, immobilised uPAR, 20 °C, 1:1 model
[5] = single cycle SPR, immobilised uPAR, 20 °C, read-out: kon
[6] = [63Cu]-DOTA labelled peptides, single-cycle SPR

Row | Compound | IC50 (uPAR•uPA interaction) [nM] | koff (uPAR [1]; [3]) [s⁻¹] | Kd (uPAR [1]; [4]) [nM] | kon (uPAR [1]; [5]) [M⁻¹ s⁻¹] | fold increase in the IC50-value (uPAR•uPA interaction; compared to AE105 (1)) [fold] | decrease in apparent Tm on introduction of spacer (uPAR [2]) [°C] | IC50 of DOTA-conjugated peptide compared to unconjugated peptide (uPAR•uPA interaction; (1b) vs (1), (8b) vs (8)) | Kd (uPAR [1]; [6]) [nM] | koff (uPAR [1]; [6]) [s⁻¹] | kon (uPAR [1]; [6]) | reduction of affinity on DOTA-conjugation (uPAR [1]; real-time binding kinetics, vs unconjugated peptides) | increase in potency (uPAR•uPA interaction; compared to (4)) [fold] | increase in potency (uPAR•uPA interaction; compared to (5)) [fold] | association rate constant (kon) compared to (4) (uPAR [1]) | dissociation rate constant (koff) compared to (4) (uPAR [1]) | increase in thermal stability (apparent Tm) (uPAR [2]; disulfide-bonded peptide compared to linear peptide (4)) [°C] | Tm (apparent melting temperature of uPAR•peptide complex) (uPAR [2]) | increase in apparent Tm (uPAR [2]; DOTA-conjugated peptides with spacer, compared to (4b))
1 | CC(C)C[C@@H]1NC(=O)[C@H](Cc2ccc(O)cc2)NC(=O)[C@H](NC(=O)[C@@H](CO)NC(=O)[C@H](Cc2ccccc2)NC(=O)[C@H](CC2CCCCC2)NC(=O)[C@H](CC(=O)O)NC(=O)CNC(=O)CNC(=O)[C@@H](CO)NC(=O)CNC(=O)[C@H](CCC(=O)O)NC(=O)[C@H](CCC(=O)O)NC(=O)CN2CCN(CC(=O)O)CCN(CC(=O)O)CCN(CC(=O)O)CC2)CSSC[C@@H](C(=O)O)NC(=O)[C@H](Cc2c[nH]c3ccccc23)NC1=O [6b] ({DOTA}-EEG[dS]GGD[Cha]F[dS][dC]YLWC-OH; disulfide 11-15) | 15.8 ± 0.4 | 0.00977 ± 1e-05 | 20.3 | 481000 ± 1000 | – | – | – | – | – | – | – | – | – | – | – | – | 61.3 ± 0.4 °C | 6–14 °C
2 | CC(C)C[C@@H]1NC(=O)[C@H](Cc2ccc(O)cc2)NC(=O)[C@H](NC(=O)[C@@H](CO)NC(=O)[C@H](Cc2ccccc2)NC(=O)[C@H](CC2CCCCC2)NC(=O)[C@H](CC(=O)O)NC(=O)CNC(=O)CNC(=O)[C@@H](CO)NC(=O)CNC(=O)[C@H](CCC(=O)O)NC(=O)[C@@H](N)CCC(=O)O)CSSC[C@@H](C(=O)O)NC(=O)[C@H](Cc2c[nH]c3ccccc23)NC1=O [compound 6] (H-EEG[dS]GGD[Cha]F[dS][dC]YLWC-OH; disulfide 11-15; N-terminus assumed) | – | 0.01033 ± 3e-05 | – | 611000 ± 3000 | – | 10 | – | – | – | – | – | 1.4 | 11 | improved ~ twofold | ~ twofold impairment | 5 | 60.6 °C and 60.6 ± 0.7 °C | –

Continued, in another order:

Row | IC50 (uPAR•uPA interaction) [nM] | koff (uPAR [1]; [3]) [s⁻¹] | Kd (uPAR [1]; [4]) [nM] | kon (uPAR [1]; [5]) [M⁻¹ s⁻¹] | fold increase in the IC50-value (uPAR•uPA interaction; compared to AE105 (1)) [fold] | decrease in apparent Tm on introduction of spacer (uPAR [2]) [°C] | IC50 of DOTA-conjugated peptide compared to unconjugated peptide (uPAR•uPA interaction; (1b) vs (1), (8b) vs (8)) | Kd (uPAR [1]; [6]) [nM] | koff (uPAR [1]; [6]) [s⁻¹] | kon (uPAR [1]; [6]) | reduction of affinity on DOTA-conjugation (uPAR [1]; real-time binding kinetics, vs unconjugated peptides) | increase in potency (uPAR•uPA interaction; compared to (4)) [fold] | increase in potency (uPAR•uPA interaction; compared to (5)) [fold] | association rate constant (kon) compared to (4) (uPAR [1]) | dissociation rate constant (koff) compared to (4) (uPAR [1]) | increase in thermal stability (apparent Tm) (uPAR [2]; disulfide-bonded peptide compared to linear peptide (4)) [°C] | Compound | Tm (apparent melting temperature of uPAR•peptide complex) (uPAR [2]) | increase in apparent Tm (uPAR [2]; DOTA-conjugated peptides with spacer, compared to (4b))
3 | 32.2 ± 0.9 | 0.00717 ± 1e-05 | 33.6 | 213000 ± 400 | – | – | – | – | – | – | – | – | – | – | – | – | CC(C)C[C@H](NC(=O)[C@H](Cc1ccc(O)cc1)NC(=O)[C@@H](CCCNC(=N)N)NC(=O)[C@@H](CO)NC(=O)[C@H](Cc1ccccc1)NC(=O)[C@H](CC1CCCCC1)NC(=O)[C@H](CC(=O)O)NC(=O)CNC(=O)CNC(=O)[C@@H](CO)NC(=O)CNC(=O)[C@H](CCC(=O)O)NC(=O)[C@H](CCC(=O)O)NC(=O)CN1CCN(CC(=O)O)CCN(CC(=O)O)CCN(CC(=O)O)CC1)C(=O)N[C@@H](Cc1c[nH]c2ccccc12)C(=O)N[C@@H](CO)C(=O)O [4b] ({DOTA}-EEG[dS]GGD[Cha]F[dS][dR]YLWS-OH) | 55.6 ± 0.03 °C | –
4 | – | 0.00558 ± 1e-05 | – | 280000 ± 1000 | 2.7 | 10 | – | – | – | – | – | – | – | – | – | – | CC(C)C[C@H](NC(=O)[C@H](Cc1ccc(O)cc1)NC(=O)[C@@H](CCCNC(=N)N)NC(=O)[C@@H](CO)NC(=O)[C@H](Cc1ccccc1)NC(=O)[C@H](CC1CCCCC1)NC(=O)[C@H](CC(=O)O)NC(=O)CNC(=O)CNC(=O)[C@@H](CO)NC(=O)CNC(=O)[C@H](CCC(=O)O)NC(=O)[C@@H](N)CCC(=O)O)C(=O)N[C@@H](Cc1c[nH]c2ccccc12)C(=O)N[C@@H](CO)C(=O)O [compound 4] (H-EEG[dS]GGD[Cha]F[dS][dR]YLWS-OH; N-terminus assumed) | 55.2 °C and 55.2 ± 0.2 °C | –
5 | 48 ± 2 | 0.00557 ± 1e-05 | 26.9 | 207000 ± 1000 | – | – | four to fivefold higher | 86.5 | 0.0175 ± 0.0003 | 2.02 ± 0.03 105 M-1 s-1 | 8–11 fold | – | – | – | – | – | CC(C)C[C@H](NC(=O)[C@H](Cc1ccc(O)cc1)NC(=O)[C@@H](CCCNC(=N)N)NC(=O)[C@@H](CO)NC(=O)[C@H](Cc1ccccc1)NC(=O)[C@H](CC1CCCCC1)NC(=O)[C@H](CC(=O)O)NC(=O)CN1CCN(CC(=O)O)CCN(CC(=O)O)CCN(CC(=O)O)CC1)C(=O)N[C@@H](Cc1c[nH]c2ccccc12)C(=O)N[C@@H](CO)C(=O)O [1b] | 58.8 °C | –
